According to patent US7098332B2, “5,8-Dihydro-6H-pyrido[2,3-d]pyrimidin-7-ones” (Hoffmann-La Roche Inc., priority 2002, dated 2006):

Columns and labels:
EGFR = EGFR (Homo sapiens, UniProt P00533); assay: EGFR kinase HTRF assay; type: biochemical; details: 0.5 μM ATP
Experimental: (§1) To determine inhibition of KDR, FGFR, EGFR, and PDGFR activity, kinase assays were conducted using an HTRF (Homogeneous Time Resolved Fluorescence) assay. This assay is described in A. J. Kolb et. al., Drug Discovery Today, 1998, 3(7), p 333.
(§2) Kinase activity assays were performed in 96-well polypropylene plates (Falcon) with a total volume of 90 μL in each well. Each well contained 1 μM KDR substrate (Biotin-EEEEYFELVAKKKK), 1 nM activated KDR, and a test compound with one of 8 assay concentrations ranging from 100 μM to […] (1:5 serial dilution). The kinase activity assay was done in the presence of 100 mM HEPES, pH 7.4, 1 mM DTT, 0.1 mM Na2VO4, 25 mM MgCl2, 50 mM NaCl (from KDR stock solution), 1% DMSO (from compound), 0.3 mM ATP (at Km concentration) and 0.02% BSA. The reaction was incubated at 37° C. for 30 minutes. To stop the KDR reaction, 72 μL of reaction mixture was transferred into a STOP plate containing 18 μL of revelation buffer (20 mM EDTA, 50 mM HEPES, pH 7.4, 0.02% BSA, 10 nM Eu-labelled anti-pY antibody (final conc. 2 nM), and 100 nM streptavidin (final conc. 20 nM)). After mixing, 35 μL of solution was transferred into duplicate wells of a 384-well black plate (Costar), and read at 615/665 nm on a Wallac Victor 5 reader.
The EGFR kinase activity assay was performed with 1 μM substrate (Biotin-EEEEYFELV), 1.5 nM EGFR, test compounds, 100 mM HEPES, pH 7.4, 1 mM DTT, 5 mM MgCl2, 2 mM MnCl2, 1% DMSO, 0.5 μM ATP (Km for EGFR), 0.1 mM Na2VO4, and 0.02% BSA. The rest of the assay was performed in the same manner as the KDR assay.
(§3) Compound IC50 values were determined from duplicate sets of data, and calculated by using Excel and fitting data to equation Y=[(a−b)/{1+(X/c)^d]+b, where a and b are enzyme activity in the presence of no test inhibitor compound and an infinite amount of inhibitor test compound, respectively, c is the IC50 and d is the hill constant of the compound response. The IC50 value is the concentration of test compound that reduces by 50% the enzyme activity under the test conditions described.

FGFR = biological target: T1, FGFR; assay: FGFR kinase HTRF assay; type: biochemical; details: 10 μM ATP
T1 construct: fused on or other part: GST tag
Experimental: as §1, §2
FGFR, EGFR, and PDGFR activity assays were carried out as described above for the KDR activity assay with the following differences. GST-tagged FGFR enzyme was activated at room temperature for 1 hour in the following activation buffer: 100 mM HEPES, pH 7.4, 50 mM NaCl, 20 mM MgCl2, and 4 mM ATP. The kinase activity assay was performed with 1 μM substrate (Biotin-EEEEYFELV), 1.5 nM activated FGFR, and test compound in the presence of 100 mM HEPES, 1 mM DTT, 0.4 mM MgCl2, 0.4 mM MnCl2, 50 mM NaCl, 1% DMSO, 10 μM ATP (Km=8.5 μM for FGFR), 0.1 mM Na2VO4, and 0.02% BSA, in a total volume of 90 μL. The rest of the assay was performed in the same manner as KDR assay.
as §3

PDGFR = PDGFR kinase HTRF assay; type: biochemical; details: 2.3 μM ATP
Experimental: as §1, §2
The PDGFR kinase activity assay was performed with 1 μM substrate (Biotin-EEEEYFELV), 1.0 nM PDGFR, test compounds, 100 mM HEPES, pH 7.4, 1 mM DTT, 5 mM MgCl2, 2 mM MnCl2, 1% DMSO, 2.3 μM ATP (Km for PDGFR), 0.1 mM Na2VO4, and 0.02% BSA. The rest of the assay was performed in the same manner as the KDR assay.
as §3

KDR = biological target: T2, KDR (Homo sapiens, UniProt P35968); assay: KDR kinase HTRF assay; type: biochemical; details: 0.3 mM ATP
T2 construct: EEE tag
T2 sequence (P35968 20-1356): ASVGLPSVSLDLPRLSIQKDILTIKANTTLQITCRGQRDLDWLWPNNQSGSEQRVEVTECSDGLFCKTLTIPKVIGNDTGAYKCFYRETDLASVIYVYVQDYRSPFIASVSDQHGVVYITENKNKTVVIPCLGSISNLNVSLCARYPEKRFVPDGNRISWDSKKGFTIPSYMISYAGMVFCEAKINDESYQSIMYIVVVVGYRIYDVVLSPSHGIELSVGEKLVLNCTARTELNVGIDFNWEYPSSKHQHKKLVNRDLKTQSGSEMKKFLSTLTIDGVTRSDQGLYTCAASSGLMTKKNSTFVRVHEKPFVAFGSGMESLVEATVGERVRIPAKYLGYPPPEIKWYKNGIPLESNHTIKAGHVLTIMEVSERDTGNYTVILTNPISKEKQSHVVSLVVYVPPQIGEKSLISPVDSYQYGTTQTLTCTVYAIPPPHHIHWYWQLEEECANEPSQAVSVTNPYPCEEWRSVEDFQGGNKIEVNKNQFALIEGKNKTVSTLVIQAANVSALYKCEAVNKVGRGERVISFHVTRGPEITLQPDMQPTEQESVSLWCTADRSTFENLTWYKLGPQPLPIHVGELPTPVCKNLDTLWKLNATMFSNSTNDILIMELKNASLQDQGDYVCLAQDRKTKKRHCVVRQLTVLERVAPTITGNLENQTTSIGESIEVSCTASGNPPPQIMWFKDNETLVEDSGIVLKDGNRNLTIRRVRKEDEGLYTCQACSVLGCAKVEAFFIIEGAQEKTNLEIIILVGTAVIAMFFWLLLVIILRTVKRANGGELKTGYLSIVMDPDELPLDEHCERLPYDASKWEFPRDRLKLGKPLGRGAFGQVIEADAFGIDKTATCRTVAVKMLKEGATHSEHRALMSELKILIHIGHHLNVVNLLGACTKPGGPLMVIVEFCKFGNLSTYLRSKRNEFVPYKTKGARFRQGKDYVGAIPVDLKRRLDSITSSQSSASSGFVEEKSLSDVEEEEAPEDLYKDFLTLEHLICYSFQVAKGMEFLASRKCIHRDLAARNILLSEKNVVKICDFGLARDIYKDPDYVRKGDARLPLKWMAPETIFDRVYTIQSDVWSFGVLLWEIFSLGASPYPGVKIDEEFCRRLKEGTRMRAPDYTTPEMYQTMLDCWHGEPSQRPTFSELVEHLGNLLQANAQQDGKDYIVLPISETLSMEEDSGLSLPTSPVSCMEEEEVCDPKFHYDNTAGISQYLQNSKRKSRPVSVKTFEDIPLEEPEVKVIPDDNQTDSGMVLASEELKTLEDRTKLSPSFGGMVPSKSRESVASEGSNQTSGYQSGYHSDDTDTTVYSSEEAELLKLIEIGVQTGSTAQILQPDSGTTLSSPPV
Experimental: as §1
Prior to kinase reaction, recombinant EEE-tagged KDR was activated in the presence of activation buffer (50 mM HEPES, pH 7.4, 1 mM DTT, 10% glycerol, 150 mM NaCl, 0.1 mM EDTA, 26 mM MgCl2, and 4 mM ATP). The enzyme was incubated at 4° C. for 1 hour.
as §2, §3

[1] = system: Human umbilical vein endothelial cells; assay: VEGF-stimulated HUVEC proliferation assay (BrdU); type: cell-based; details: VEGF 20 ng per mL, BrdU labeling, read-out: HUVEC/VEFG IC50
Experimental: (§4) The antiproliferative activity of test-compounds of this invention in cell-based assays was evaluated by BrdU assay using the BrdU kit (Roche Biochemicals 1-647-229). Human umbilical vein endothelial cells (Clonetics CC-2519) were cultured in EGM-2 (Clonetics CC-3162) medium and seeded at 10000 cells per well in a volume of 200 μL of EGM-2 (Clonetics CC-3162) media in a 96-well flat bottom plates (Costar 3595) overnight. After 24 hours of growth at 37° C. with 5% CO2, the incubation media was removed slowly by aspiration and the content of each well was washed with 300 μL pre-warmed EBM-2 (Clonetics CC-3156) containing 50 μg per mL of gentamycin and 50 ng per mL of amphotercin-B (Clonetics CC-4083). […]
(§5) After 24 hour exposure to the test compounds, the cells were labeled with BrdU (Roche Biochemicals 1-647-229), by adding 20 μL per well of BrdU labeling reagent that has been diluted (1:100) in serum starvation medium. […] The plates were read at 450 nm with reference wavelength of 650 nm. The percent inhibition for each test compound was calculated by subtracting the absorbency of the blank (no cells) wells from all wells, then subtracting the division of the average absorbency of each test duplicate by the average of the controls from 1. […] The IC50 is determined from the linear regression of a plot of the logarithm of the concentration versus percent inhibition.

[2] = system: Human umbilical vein endothelial cells; assay: FGF-stimulated HUVEC proliferation assay (BrdU); type: cell-based; details: FGF 5 ng per mL, BrdU labeling, read-out: HUVEC/bFGFR IC50
Experimental: as §4, §5

Measured: IC50

EGFR, sequence (P00533 25-1210, species assumed): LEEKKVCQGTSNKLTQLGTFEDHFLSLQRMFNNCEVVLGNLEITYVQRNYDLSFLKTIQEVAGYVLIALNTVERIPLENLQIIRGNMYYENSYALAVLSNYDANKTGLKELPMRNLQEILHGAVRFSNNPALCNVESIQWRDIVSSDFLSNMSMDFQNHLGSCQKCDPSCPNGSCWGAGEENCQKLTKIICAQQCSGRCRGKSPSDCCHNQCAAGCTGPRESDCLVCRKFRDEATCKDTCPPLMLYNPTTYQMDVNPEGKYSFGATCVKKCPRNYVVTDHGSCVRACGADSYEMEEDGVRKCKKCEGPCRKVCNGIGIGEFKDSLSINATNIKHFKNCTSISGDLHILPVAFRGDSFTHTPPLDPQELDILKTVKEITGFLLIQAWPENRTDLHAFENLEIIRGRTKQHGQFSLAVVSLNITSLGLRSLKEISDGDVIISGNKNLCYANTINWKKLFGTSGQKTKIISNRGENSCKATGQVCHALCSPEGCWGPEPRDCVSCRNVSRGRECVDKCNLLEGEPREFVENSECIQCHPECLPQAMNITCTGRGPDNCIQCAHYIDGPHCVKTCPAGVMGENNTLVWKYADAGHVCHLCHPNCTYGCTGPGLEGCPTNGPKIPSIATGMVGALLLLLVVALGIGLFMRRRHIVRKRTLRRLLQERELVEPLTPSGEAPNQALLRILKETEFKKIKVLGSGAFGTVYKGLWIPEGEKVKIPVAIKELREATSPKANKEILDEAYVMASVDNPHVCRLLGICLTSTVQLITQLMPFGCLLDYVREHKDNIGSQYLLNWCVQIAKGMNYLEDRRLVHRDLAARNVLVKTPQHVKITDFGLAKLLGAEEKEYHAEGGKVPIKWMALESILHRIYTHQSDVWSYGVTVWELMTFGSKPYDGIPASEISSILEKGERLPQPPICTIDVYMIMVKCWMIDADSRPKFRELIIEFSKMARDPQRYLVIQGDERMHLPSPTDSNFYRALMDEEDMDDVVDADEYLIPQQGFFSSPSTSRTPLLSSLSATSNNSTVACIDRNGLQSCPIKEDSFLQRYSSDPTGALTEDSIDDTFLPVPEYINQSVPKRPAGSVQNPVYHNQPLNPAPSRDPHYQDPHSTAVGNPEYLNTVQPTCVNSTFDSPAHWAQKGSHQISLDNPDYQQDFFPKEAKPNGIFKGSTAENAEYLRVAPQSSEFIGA

O=C1C(c2c(Cl)cccc2Cl)Cc2cnc(Nc3ccccc3)nc2N1c1ccccc1 (stereo not drawn) [Example 2c, 6-(2,6-Dichloro-phenyl)-8-phenyl-2-phenylamino-5,8-dihydro-6H-pyrido[2,3-d]pyrimidin-7-one]
< 10 µM: all assays above

COc1cc(OC)cc(C2Cc3cnc(Nc4ccccc4)nc3N(c3ccccc3)C2=O)c1 (stereo not drawn) [Example 3d, 6-(3,5-Dimethoxy-phenyl)-8-phenyl-2-phenylamino-5,8-dihydro-6H-pyrido[2,3-d]pyrimidin-7-one]
< 10 µM: all assays above
